Here are results for five compounds from patent US6392055B1, “Synthesis and biological evaluation of analogs of the antimitotic marine natural product curacin A” (The University of Pittsburgh, priority 2000, dated 2002).

The structures appear in SMILES notation. Read-outs that look alike come from different tables or passages of the source.

The target of assay [1] is tubulin (colchicine site). In words: Inhibition of [3H]colchicine binding to tubulin. Details: species or system bovine. The following applies: for IC50: 5 μM [3H]colchicine, 1 μM tubulin. The procedure:
Assays to determine whether 15mix-17mix inhibited binding of [^3H]colchicine to tubulin at both 30° C. and 37° C. were performed. This was accomplished using methods described previously. Kang, G.-J.; Getahun, Z.; Muzaffar, A.; Brossi, A.; Hamel, E. J. Biol. Chem. 1990, 265, 10255; Verdier-Pinard, P.; Lai, J.-Y.; Yoo, H.-D.; Yu, J.; Marquez, B.; Nagle, D. G.; Nambu, M.; White, J. D.; Falck, J. R.; Gerwick, W. H.; Day, B. W.; Hamel, E. Mol. Pharmacol. 1998, 53, 62. Briefly, 5 μM [^3H]colchicine (2.3 TBq/mmol), drug (1, 5, 10, 50, or 250 μM), or vehicle (DMSO, 5% v/v) were incubated at 30° C. for 15 minutes or at 37° C. for 10 minutes with 1 μM tubulin in the presence of 1 M monosodium glutamate, 0.1 M glucose-1-phosphate, 1 mM MgCl2, 1 mM GTP, and 0.5 mg/mL bovine serum albumin. The solutions were filtered through two stacks of DEAE-cellulose filters and the radioactivity in the filtrate was determined by scintillation spectrometry. Each series of determinations included positive controls of 1, 5, and/or 50 μM curacin A.

In assay [2] the test system is isolated bovine brain tubulin. In words: Inhibition of GTP/glutamate-induced tubulin polymerization (turbidimetric, 30° C.). It counts as biochemical.
A further assay has as its system MDA-MB231 cells. In words: Growth inhibition of breast carcinoma cells (MTS). It counts as cell-based, human.
In the next assay the test system is PC-3 cells. In words: Growth inhibition of prostate carcinoma cells (MTS). It counts as cell-based, human.
The test system of another assay is 2008 cells. The experiment in a line: Growth inhibition of ovarian carcinoma cells (MTS). It counts as cell-based, human.
The subject of assay [3] is MCF-7 human breast carcinoma cells. In words: Mitotic index by immunofluorescence of phosphorylated core histone. It counts as cell-based. Conditions: for concentration causing maximum mitotic block: 0.0075-15 μM. The procedure:
Further verification of the biological activity of compounds 17a-e was obtained in living tumor cells by quantifying their effect on mitotic index, essentially, counting the number of cells in the mitotic phase of the cell cycle. Antimitotic compounds increase the mitotic index, which can be quantified immunohistochemically using an antibody to a mitosis-specific phosphorylated core histone protein. MCF-7 human breast carcinoma cells were treated with increasing concentrations of compounds 17a-e (7.8-1000 nM), curacin A (3.1-400 nM), and vinblastine (0.08-10 nM) for 14-16 hours. The morphology of the cellular nuclei and the mircrotubule cytoskeleton, as well as the phosphorylation of a core histone protein, were visualized using a multiparameter immunofluorescence approach. […] Compound 17b induced cell rounding and the generalized loss of structured microtubules in the same cells. The mitotic index in drug-treated cells was measured. To assess the relative activity of compounds 17a-e and two known microtubule disrupting drugs, vinblastine and curacin A, the minimum effective concentration of each drug was measured.
Phosphorylation of histone H3 occurs during mitosis and is linked to chromosome condensation. Thus, antimitotic agents cause an accumulation of cells containing […]. Wei, Y.; Mizzen, C. A.; Cook, R. G.; Gorovsky, M. A.; Allis, C. D. Proc. Natl Acad. Sci. USA 1998, 95, 7480. MCF-7 human breast carcinoma cells were treated with increasing concentrations (0.0075-15 μM) of 17mix and 17a-e for 14 hours and mitotic index quantities automatically. […] Vinblastine, a classic mitotic inhibitor, was tested over a range of 0.49 nM to 0.1 μM and caused a maximum accumulation of adherent cells in mitosis of 26%.

[4] abbreviates: incubation at 30° C. for 15 minutes, read-out: 50% Colchicine Binding Inhibitory Concentration (CBI), 30° C.
[5] abbreviates: incubation at 37° C. for 10 minutes, read-out: 50% Colchicine Binding Inhibitory Concentration (CBI), 37° C.
[6] abbreviates: read-out: 50% Tubulin Polymerization Inhibition Concentration (TPI) IC50, 30° C., 10 μM tubulin.
The mark [7] stands for this setting: Homo sapiens, MDA-MB-231, 48 h, read-out: GI50 MDA-MB231 (48 h).
The mark [8] stands for this setting: Homo sapiens, PC-3, 48 h, read-out: GI50 PC-3 (48 h).
Setting [9] is: Homo sapiens, Ovarian carcinoma cell, 48 h, read-out: GI50 2008 (48 h).

The GI50 is the concentration giving 50% growth inhibition.

`COc1cc(/C=C\CC/C=C/C=C(\C)CCC(O)c2cc3ccccc3s2)cc(OC)c1OC` (centres unmarked) [Compound 17b, (4E,6E,10Z)-11-(3,4,5-Trimethoxyphenyl)-4-methyl-1-benzothiophen-2ylundeca-4,6,10-trien-1ol]: the IC50 in assay [1] (setting [4]) was determined as 9000 ± 7000 nM; in assay [1] (setting [5]) it was 19000 ± 2000 nM; in assay [2] (setting [6]), 1400 nM. The GI50 in the assay with MDA-MB231 cells (setting [7]) was 230 ± 60 nM; in the assay with PC-3 cells (setting [8]), 620 ± 50 nM; in the assay on 2008 cells (setting [9]), 360 ± 1 nM. Besides, the “fraction of cells exhibiting condensed chromatin and increased core histone phosphorylation” value in assay [3] (14-16 hours) is “large increase”.

Turning to `COc1cc(/C=C\CC/C=C/C=C(\C)CCC(O)c2cccs2)cc(OC)c1OC` (centres unmarked) [Compound 17c, (4E,6E,10Z)-11-(3,4,5-Trimethoxyphenyl)-4-methyl-1-thiophen-2-ylundeca-4,6,10-trien-1-ol], the values for the IC50 in assay [1] (setting [4]), in assay [1] (setting [5]) and in assay [2] (setting [6]) were 39000 ± 10000 nM, 9000 ± 3000 nM and 1200 nM, respectively. Moreover, the GI50 worked out at 280 ± 40 nM with MDA-MB231 cells (setting [7]), 380 ± 80 nM with PC-3 cells (setting [8]) and 280 ± 20 nM in the assay with 2008 cells (setting [9]). In addition, the “concentration causing maximum mitotic block” value in assay [3] (14 hours) was “sub-micromolar”.

As for `COc1cc(/C=C\CC/C=C/C=C(\C)CCC(O)c2cc3ccccc3o2)cc(OC)c1OC` (centres unmarked) [Compound 17e, (4E,6E,10Z)-11-(3,4,5-Trimethoxyphenyl)-4-methyl-1-benzofuran-2-ylundeca-4,6,10-trien-1-ol], the IC50 in assay [1] (setting [4]) came out at 9000 ± 4000 nM; in assay [1] (setting [5]) it was 28000 ± 8000 nM; in assay [2] (setting [6]), 1600 nM. Besides, the GI50 with MDA-MB231 cells (setting [7]) is 120 ± 70 nM; in the assay on PC-3 cells (setting [8]), 310 ± 200 nM; in the assay with 2008 cells (setting [9]), 270 ± 50 nM. In addition, the “concentration causing maximum mitotic block” value in assay [3] (14 hours) is recorded as “sub-micromolar”.

As for `CC[C@]1(O)C[C@@H]2CN(CCc3c([nH]c4ccccc34)[C@@](C(=O)OC)(c3cc4c(cc3OC)N(C)[C@H]3[C@@](O)(C(=O)OC)[C@H](OC(C)=O)[C@]5(CC)C=CCN6CC[C@]43[C@@H]65)C2)C1` [Vinblastine, vinblastine, reference compound], the “maximum accumulation of adherent cells in mitosis” value in assay [3] (tested over 0.49 nM to 0.1 μM, 14 hours) was found to be 26%.

As for `C=CC[C@@H](CC/C(C)=C/C=C/CC/C=C\[C@@H]1CSC([C@@H]2C[C@@H]2C)=N1)OC` [curacin A], the “Percent Colchicine Binding Inhibition (CBI), 5 μM” value in assay [1] (5 μM compound) is recorded as 84.9 ± 1.07 %. In addition, in assay [1] (5 μM compound, 30° C. (values in parentheses)), the “% CBI 5 μM, (30° C.)” value is given as “(78 ± 2) %”. The “% CBI 5 μM, 37° C.” value in assay [1] (5 μM compound, 37° C.) is on record as 87 ± 9%. In addition, in assay [1] (5 μM compound, re-test (in parentheses)), the “Percent Colchicine Binding Inhibition (CBI), 5 μM, re-test value” is “(95.0 ± 0.7*) %”. The “Percent Colchicine Binding Inhibition (CBI), 50 μM” value in assay [1] (50 μM compound) stood at 96.2 ± 0.7 %. In assay [1] (50 μM compound, 30° C. (values in parentheses)), the “% CBI 50 μM, (30° C.)” value is listed as “(99 ± 1) %”. In assay [1] (50 μM compound, 37° C.), the “% CBI 50 μM, 37° C.” value is reported as 97 ± 0%. In addition, the “Percent Colchicine Binding Inhibition (CBI), 50 μM, re-test value” in assay [1] (50 μM compound, re-test (in parentheses)) is “(97.7 ± 0.0*) %”. The “displacement of pre-bound [3H]colchicine from tubulin, 30° C.” value in assay [1] (equimolar (5 μM) concentration, 30° C.) is given as 78±2%. Further, in assay [1] (equimolar (5 μM) concentration, 37° C.), the “displacement of pre-bound [3H]colchicine from tubulin, 37° C.” value amounted to 87±9%. The IC50 was found to be 900 ± 300 nM in assay [1] (setting [4]); 600 ± 100 nM in assay [1] (setting [5]); 520 ± 210 nM in assay [2] (30° C. turbidimetric assay, N=2 over 4 concentrations, read-out: IC50, inhibition of GTP/glutamate-induced assembly of tubulin); 780 ± 70 nM in assay [2] (setting [6]). Besides, in assay [2] (5 μM compound), the “% TPI 5 μM” value amounted to 98%. For the same compound, the “Percent Tubulin Polymerization Inhibition (TPI), 5 μM” value in assay [2] (5 μM compound) is 97.9%. For the same compound, the GI50 amounted to 64 ± 7 nM in the assay with MDA-MB231 cells (96 h, Table II prints no unit, read-out: GI50 MDA 96 h); 186 ± 226 nM in the assay with MDA-MB231 cells (read-out: GI50 MDA 48 h, 48 h, Table II prints no unit); 96 ± 60 nM with MDA-MB231 cells (read-out: GI50 MDA-MB231 (48 h), 48 h); 96 ± 60 nM with MDA-MB231 cells (read-out: GI50 breast (MDA-MB231), 48 hours of continuous drug exposure, 48 hours continuous exposure); 48 ± 8 nM with PC-3 cells (96 h, Table II prints no unit, read-out: GI50 PC3 96 h); 50 ± 9 nM with PC-3 cells (read-out: GI50 PC3 48 h, 48 h, Table II prints no unit). Further, the concentration for 50% growth inhibition (GI50) in the assay with PC-3 cells (read-out: GI50 PC-3 (48 h), 48 h) is 50 ± 9 nM; with PC-3 cells (read-out: GI50 prostate (PC3), 48 hours of continuous drug exposure, 48 hours continuous exposure), 50 ± 9 nM; in the assay on 2008 cells (96 h, Table II prints no unit, read-out: GI50 2008 96 h), 26 ± 12 nM; in the assay on 2008 cells (read-out: GI50 2008 48 h, 48 h, Table II prints no unit) it was 35 ± 7 nM; in the assay with 2008 cells (read-out: GI50 2008 (48 h), 48 h) it was 35 ± 7 nM; in the assay with 2008 cells (read-out: GI50 ovarian (2008), 48 hours of continuous drug exposure, 48 hours continuous exposure), 35 ± 7 nM.
